From ChEMBL document CHEMBL1201861, “Genomics of Drug Sensitity in Cancer screening data, Wellcome Trust Sanger Institute”
pIC50: −log10 of the molar value.

Assays:
Experiment in all cases: cells
COLO-800 = assay type: functional, cell-based, Homo sapiens; details: Homo sapiens, COLO-800;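 also: growth inhibition of COLO-800 cells, read out with a cell viability assay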
Description: SANGER: Inhibition of human COLO-800 cell growth in a cell viability assay.

COR-L88 = assay type: functional, cell-based, Homo sapiens; details: Homo sapiens, COR-L88;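 also: growth inhibition of COR-L88 cells, read out with a cell viability assay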
Description: SANGER: Inhibition of human COR-L88 cell growth in a cell viability assay.

CTV-1 = assay type: functional, cell-based, Homo sapiens; details: Homo sapiens, CTV-1;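 also: growth inhibition of the cell line, read out with a cell viability assay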
Description: SANGER: Inhibition of human CTV-1 cell growth in a cell viability assay.

D-502MG = assay type: functional, cell-based, Homo sapiens; details: Homo sapiens, D-502MG
Description: SANGER: Inhibition of human D-502MG cell growth in a cell viability assay.

EM-2 = assay type: functional, cell-based, Homo sapiens; details: Homo sapiens, EM-2;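 also: growth inhibition of EM-2 cells, read out with a cell viability assay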
Description: SANGER: Inhibition of human EM-2 cell growth in a cell viability assay.

ETK-1 = assay type: functional, cell-based, Homo sapiens; details: Homo sapiens, ETK-1;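 also: growth inhibition of human ETK-1 cells, read out with a cell viability assay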
Description: SANGER: Inhibition of human ETK-1 cell growth in a cell viability assay.

EW-18 = assay type: functional, cell-based, Homo sapiens; details: Homo sapiens, EW-18; read-out: IC50;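 also: growth inhibition of EW-18 cells, read out by a cell viability assay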
Description: SANGER: Inhibition of human EW-18 cell growth in a cell viability assay.

GAK = assay type: functional, cell-based, Homo sapiens; details: Homo sapiens, GAK;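 also: cell growth inhibition read out by a cell viability assay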
Description: SANGER: Inhibition of human GAK cell growth in a cell viability assay.

GI-1 = assay type: functional, cell-based, Homo sapiens; details: Homo sapiens, GI-1;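 also: growth inhibition of human GI-1 cells, measured with a cell viability readout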
Description: SANGER: Inhibition of human GI-1 cell growth in a cell viability assay.

GI-ME-N = assay type: functional, cell-based, Homo sapiens; details: Homo sapiens, GI-ME-N;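 also: growth inhibition of human GI-ME-N cells, read out with a cell viability assay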
Description: SANGER: Inhibition of human GI-ME-N cell growth in a cell viability assay.

HCC1187 = assay type: functional, cell-based, Homo sapiens; details: Homo sapiens, HCC1187;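 also: growth inhibition of HCC1187 cells, read out with a cell viability assay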
Description: SANGER: Inhibition of human HCC1187 cell growth in a cell viability assay.

HCE-4 = assay type: functional, cell-based; details: Homo sapiens;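 also: cell viability assay measuring inhibition of growth in the human HCE-4 cell line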
Description: SANGER: Inhibition of human HCE-4 cell growth in a cell viability assay.

HCE-T = assay type: functional, cell-based, Homo sapiens; details: Homo sapiens, HCE-T;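 also: cell viability assay read-out, reporting inhibition of HCE-T cell growth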
Description: SANGER: Inhibition of human HCE-T cell growth in a cell viability assay.

HDLM-2 = assay type: functional, cell-based, Homo sapiens; details: Homo sapiens, HDLM-2;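 also: cell viability assay measuring suppression of HDLM-2 proliferation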
Description: SANGER: Inhibition of human HDLM-2 cell growth in a cell viability assay.

IA-LM = assay type: functional, cell-based; details: Homo sapiens;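 also: cell viability assay measuring growth inhibition of human IA-LM cells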
Description: SANGER: Inhibition of human IA-LM cell growth in a cell viability assay.

IST-SL1 = assay type: functional, cell-based, Homo sapiens; details: Homo sapiens, IST-SL1;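 also: growth inhibition of human IST-SL1 cells, read out with a cell viability assay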
Description: SANGER: Inhibition of human IST-SL1 cell growth in a cell viability assay.

J-RT3-T3-5 = assay type: functional, cell-based, Homo sapiens; details: Homo sapiens, J-RT3-T3-5;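 also: cell viability assay measuring growth inhibition of human J-RT3-T3-5 cells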
Description: SANGER: Inhibition of human J-RT3-T3-5 cell growth in a cell viability assay.

KG-1 = assay type: functional, cell-based, Homo sapiens; details: Homo sapiens, KG-1;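 also: growth inhibition of KG-1 cells, read out by a cell viability assay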
Description: SANGER: Inhibition of human KG-1 cell growth in a cell viability assay.

KGN = assay type: functional, cell-based, Homo sapiens; details: Homo sapiens, KGN;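 also: growth inhibition of KGN cells, read out with a cell viability assay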
Description: SANGER: Inhibition of human KGN cell growth in a cell viability assay.

KLE = assay type: functional, cell-based; details: Homo sapiens;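 also: growth inhibition of human KLE cells, read out with a cell viability assay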
Description: SANGER: Inhibition of human KLE cell growth in a cell viability assay.

KM12 = assay type: functional, cell-based, Homo sapiens; details: Homo sapiens, KM12;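 also: KM12 cell growth inhibition, read out with a cell viability assay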
Description: SANGER: Inhibition of human KM12 cell growth in a cell viability assay.

KU812 cell line = assay type: functional, cell-based, Homo sapiens; details: Homo sapiens, KU812;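 also: growth inhibition of KU812 cells, read out with a cell viability assay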
Description: SANGER: Inhibition of human KU812 cell growth in a cell viability assay.

KURAMOCHI = assay type: functional, cell-based, Homo sapiens; details: Homo sapiens, KURAMOCHI;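 also: growth inhibition of KURAMOCHI cells, read out with a cell viability assay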
Description: SANGER: Inhibition of human KURAMOCHI cell growth in a cell viability assay.

KY821 = assay type: functional, cell-based, Homo sapiens; details: Homo sapiens, KY821;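 also: growth inhibition of human KY821 cells, read out by a cell viability assay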
Description: SANGER: Inhibition of human KY821 cell growth in a cell viability assay.

LB2518-MEL = assay type: functional, cell-based; details: Homo sapiens;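 also: growth inhibition of human LB2518-MEL cells, measured with a cell viability assay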
Description: SANGER: Inhibition of human LB2518-MEL cell growth in a cell viability assay.

LXF-289 cell line = assay type: functional, cell-based; details: Homo sapiens
Description: SANGER: Inhibition of human LXF-289 cell growth in a cell viability assay.

MMAC-SF = assay type: functional, cell-based; details: Homo sapiens;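 also: growth inhibition of human MMAC-SF cells, read out with a cell viability assay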
Description: SANGER: Inhibition of human MMAC-SF cell growth in a cell viability assay.

MN-60 = assay type: functional, cell-based, Homo sapiens; details: Homo sapiens, MN-60;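 also: growth inhibition of the MN-60 cell line, determined with a cell viability assay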
Description: SANGER: Inhibition of human MN-60 cell growth in a cell viability assay.

MS-1 = assay type: functional, cell-based, Homo sapiens; details: Homo sapiens, MS-1;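 also: growth inhibition of MS-1 cells, read out by cell viability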
Description: SANGER: Inhibition of human MS-1 cell growth in a cell viability assay.

MZ7-mel = assay type: functional, cell-based, Homo sapiens; details: Homo sapiens, MZ7-mel;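 also: growth inhibition of human MZ7-mel cells, measured by a cell viability assay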
Description: SANGER: Inhibition of human MZ7-mel cell growth in a cell viability assay.

NB5 = assay type: functional, cell-based, Homo sapiens; details: Homo sapiens, NB5;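 also: growth inhibition of NB5 cells, read out as cell viability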
Description: SANGER: Inhibition of human NB5 cell growth in a cell viability assay.

NCI-H1355 = assay type: functional, cell-based, Homo sapiens; details: Homo sapiens, NCI-H1355;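 also: growth inhibition of human NCI-H1355 cells, read out by a cell viability assay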
Description: SANGER: Inhibition of human NCI-H1355 cell growth in a cell viability assay.

NCI-H226 = assay type: functional, cell-based, Homo sapiens; details: Homo sapiens, NCI-H226;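 also: cell viability read-out used to gauge growth inhibition of the cells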
Description: SANGER: Inhibition of human NCI-H226 cell growth in a cell viability assay.

NCI-N87 = assay type: functional, cell-based; details: Homo sapiens;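 also: growth inhibition of human NCI-N87 cells, read out with a cell viability assay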
Description: SANGER: Inhibition of human NCI-N87 cell growth in a cell viability assay.

NTERA-2-cl-D1 = assay type: functional, cell-based, Homo sapiens; details: Homo sapiens, NTERA-2-cl-D1;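 also: inhibition of cell growth, measured with a cell viability assay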
Description: SANGER: Inhibition of human NTERA-S-cl-D1 cell growth in a cell viability assay.

OCI-AML2 = assay type: functional, cell-based, Homo sapiens; details: Homo sapiens, OCI-AML2;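 also: growth inhibition of OCI-AML2 cells, read out with a cell viability assay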
Description: SANGER: Inhibition of human OCI-AML2 cell growth in a cell viability assay.

OCUB-M = assay type: functional, cell-based; details: Homo sapiens;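 also: growth inhibition of the cancer cell line, read out through a cell viability assay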
Description: SANGER: Inhibition of human OCUB-M cell growth in a cell viability assay.

OVCAR-4 = assay type: functional, cell-based, Homo sapiens; details: Homo sapiens, OVCAR-4;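 also: growth inhibition of human OVCAR-4 cells, measured with a cell viability assay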
Description: SANGER: Inhibition of human OVCAR-4 cell growth in a cell viability assay.

P31-FUJ = assay type: functional, cell-based, Homo sapiens; details: Homo sapiens, P31-FUJ;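 also: growth inhibition of P31-FUJ cells, read out with a viability assay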
Description: SANGER: Inhibition of human P31-FUJ cell growth in a cell viability assay.

PC-3 = assay type: functional, cell-based; details: Homo sapiens;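 also: cell viability assay measuring growth inhibition of PC-3 cells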
Description: SANGER: Inhibition of human PC-3 cell growth in a cell viability assay.

QIMR-WIL = assay type: functional, cell-based, Homo sapiens; details: Homo sapiens, QIMR-WIL;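 also: growth inhibition of QIMR-WIL cells, read out with a cell viability assay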
Description: SANGER: Inhibition of human QIMR-WIL cell growth in a cell viability assay.

RXF 393 = assay type: functional, cell-based, Homo sapiens; details: Homo sapiens, RXF 393;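 also: growth inhibition of human RXF 393 cells, read out with a cell viability assay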
Description: SANGER: Inhibition of human RXF393 cell growth in a cell viability assay.

Ramos-2G6-4C10 = assay type: functional, cell-based, Homo sapiens; details: Homo sapiens, Ramos-2G6-4C10;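 also: growth inhibition of the cell line, measured by a cell viability read-out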
Description: SANGER: Inhibition of human Ramos-2G6-4C10 cell growth in a cell viability assay.

SH-4 = assay type: functional, cell-based; details: Homo sapiens;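 also: growth inhibition of SH-4 cells, read out with a cell viability assay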
Description: SANGER: Inhibition of human SH-4 cell growth in a cell viability assay.

SNB-75 = assay type: functional, cell-based, Homo sapiens; details: Homo sapiens, SNB-75;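 also: cell viability assay measuring growth inhibition of human SNB-75 cells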
Description: SANGER: Inhibition of human SNB75 cell growth in a cell viability assay.

SNU-C2B = assay type: functional, cell-based; details: Homo sapiens;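 also: cell viability readout used to measure compound-driven suppression of SNU-C2B cell proliferation, IC50 marking half-maximal growth inhibition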
Description: SANGER: Inhibition of human SNU-C2B cell growth in a cell viability assay.

SW 962 = assay type: functional, cell-based, Homo sapiens; details: Homo sapiens, SW 962;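 also: growth inhibition of human SW962 cells, read out by a cell viability assay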
Description: SANGER: Inhibition of human SW962 cell growth in a cell viability assay.

A4-Fuk = assay type: functional, cell-based, Homo sapiens; details: Homo sapiens, A4-Fuk;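 also: growth inhibition of A4-Fuk cells, read out by a cell viability assay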
Description: SANGER: Inhibition of human A4-Fuk cell growth in a cell viability assay.

U-266 = assay type: functional, cell-based, Homo sapiens; details: Homo sapiens, U-266
Description: SANGER: Inhibition of human U-266 cell growth in a cell viability assay.

UACC-257 = assay type: functional, cell-based, Homo sapiens; details: Homo sapiens, UACC-257
Description: SANGER: Inhibition of human UACC-257 cell growth in a cell viability assay.

no-11 = assay type: functional, cell-based, Homo sapiens; details: Homo sapiens;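 also: growth inhibition of human NO-11 cells, read out with a cell viability assay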
Description: SANGER: Inhibition of human no-11 cell growth in a cell viability assay.

COLO-668 = assay type: functional, cell-based, Homo sapiens; details: Homo sapiens, COLO-668
Description: SANGER: Inhibition of human COLO-668 cell growth in a cell viability assay.

In the case of `OC[C@H](Cc1ccccc1)Nc1nc(Oc2ccc3c(c2)CCC3)nc2c1ncn2Cc1ccc(-c2ccccc2)cc1`, the pIC50 (COLO-800) was < 4.99, the pIC50 (COR-L88) was < 4.99 and the pIC50 (CTV-1) was < 4.99. The pIC50 (D-502MG) was < 4.99, the pIC50 (EM-2) was < 4.99 and the pIC50 (ETK-1) was < 4.99. The pIC50 (EW-18) was < 4.99, the pIC50 (GAK) was < 4.99 and the pIC50 (GI-1) was 5.10. The pIC50 (GI-ME-N) was < 4.99, the pIC50 (HCC1187) was < 4.99 and the pIC50 (HCE-4) was 5.13. For the same compound, the pIC50 (HCE-T) was < 4.99, the pIC50 (HDLM-2) was < 4.99 and the pIC50 (IA-LM) was 5.23. For the same compound, the pIC50 (IST-SL1) was < 4.99, the pIC50 (J-RT3-T3-5) was < 4.99 and the pIC50 (KG-1) was < 4.99. The pIC50 (KGN) was < 4.99, the pIC50 (KLE) was < 4.99 and the pIC50 (KM12) was < 4.99. The pIC50 (KU812 cell line) was 6.20, the pIC50 (KURAMOCHI) was 5.42 and the pIC50 (KY821) was < 4.99. The pIC50 (LB2518-MEL) was < 4.99, the pIC50 (LXF-289 cell line) was 5.12 and the pIC50 (MMAC-SF) was < 4.99. For the same compound, the pIC50 (MN-60) was < 4.99, the pIC50 (MS-1) was < 4.99 and the pIC50 (MZ7-mel) was 5.05. The pIC50 (NB5) was < 4.99, the pIC50 (NCI-H1355) was < 4.99 and the pIC50 (NCI-H226) was < 4.99. For the same compound, the pIC50 (NCI-N87) was < 4.99, the pIC50 (NTERA-2-cl-D1) was < 4.99 and the pIC50 (OCI-AML2) was 5.24. The pIC50 (OCUB-M) was 5.43, the pIC50 (OVCAR-4) was 5.09 and the pIC50 (P31-FUJ) was < 4.99. The pIC50 (PC-3) was < 4.99, the pIC50 (QIMR-WIL) was 5.18 and the pIC50 (RXF 393) was < 4.99. For the same compound, the pIC50 (Ramos-2G6-4C10) was 5.12, the pIC50 (SH-4) was < 4.99 and the pIC50 (SNB-75) was < 4.99. The pIC50 (SNU-C2B) was < 4.99, the pIC50 (SW 962) was < 4.99 and the pIC50 (A4-Fuk) was < 4.99. The pIC50 (U-266) was < 4.99, the pIC50 (UACC-257) was < 4.99 and the pIC50 (no-11) was < 4.99. For the same compound, the pIC50 (COLO-668) was < 4.99.
`CCCCCCCCCCCC1=C(O)C(=O)C=C(O)C1=O` [EMBELIN] was tested, and the pIC50 (COLO-800) was < 4.49, the pIC50 (COR-L88) was < 4.49 and the pIC50 (CTV-1) was 5.03. The pIC50 (D-502MG) was < 4.49, the pIC50 (EM-2) was < 4.49 and the pIC50 (ETK-1) was 5.01. For the same compound, the pIC50 (EW-18) was 4.98, the pIC50 (GAK) was 4.93 and the pIC50 (GI-1) was 5.42. The pIC50 (GI-ME-N) was < 4.49, the pIC50 (HCC1187) was < 4.49 and the pIC50 (HCE-4) was 5.07. It also gave a pIC50 (HCE-T) of 4.88, a pIC50 (HDLM-2) of 4.76 and a pIC50 (IA-LM) of 5.65. For the same compound, the pIC50 (IST-SL1) was < 4.49, the pIC50 (J-RT3-T3-5) was 5.22 and the pIC50 (KG-1) was < 4.49. For the same compound, the pIC50 (KGN) was 5.49, the pIC50 (KLE) was 4.62 and the pIC50 (KM12) was 4.87. The pIC50 (KU812 cell line) was < 4.49, the pIC50 (KURAMOCHI) was 5.15 and the pIC50 (KY821) was < 4.49. For the same compound, the pIC50 (LB2518-MEL) was < 4.49, the pIC50 (LXF-289 cell line) was 5.05 and the pIC50 (MMAC-SF) was 4.57. For the same compound, the pIC50 (MN-60) was < 4.49, the pIC50 (MS-1) was < 4.49 and the pIC50 (MZ7-mel) was 5.01. It also gave a pIC50 (NB5) of 4.65, a pIC50 (NCI-H1355) of 5.00 and a pIC50 (NCI-H226) of 4.75. For the same compound, the pIC50 (NCI-N87) was < 4.49, the pIC50 (NTERA-2-cl-D1) was 5.80 and the pIC50 (OCI-AML2) was 5.03. For the same compound, the pIC50 (OCUB-M) was 5.27, the pIC50 (OVCAR-4) was 4.91 and the pIC50 (P31-FUJ) was < 4.49. The pIC50 (PC-3) was 4.83, the pIC50 (QIMR-WIL) was 5.28 and the pIC50 (RXF 393) was < 4.49. The pIC50 (Ramos-2G6-4C10) was 4.77, the pIC50 (SH-4) was 4.60 and the pIC50 (SNB-75) was 4.76. The pIC50 (SNU-C2B) was < 4.49, the pIC50 (SW 962) was 5.11 and the pIC50 (A4-Fuk) was < 4.49. For the same compound, the pIC50 (U-266) was < 4.49, the pIC50 (UACC-257) was < 4.49 and the pIC50 (no-11) was 5.01. The pIC50 (COLO-668) was < 4.49.
